In DBAASP:
In brackets after ≈: the same amount, converted by molar mass.

How the values were obtained:
Experiment in all cases: ≥ marks a high value that may be exact or a test limit, other limits are often not marked, values filed in µg/mL are converted to µM
[1] = tested on: Candida albicans
[2] = tested on: Staphylococcus aureus MR
[3] = tested on: Pseudomonas aeruginosa ATCC 27853
[4] = tested on: Staphylococcus aureus ATCC 49476
[5] = tested on: Staphylococcus aureus ATCC 12493
[6] = tested on: Escherichia coli NCTC 10418
[7] = tested on: Candida albicans NCYC 1467
[8] = tested on: Staphylococcus aureus NCTC 10788
[9] = tested on: Escherichia coli O157:H7
[10] = tested on: Staphylococcus aureus ATCC 25923
[11] = tested on: Escherichia coli ATCC 25922
[12] = tested on: Staphylococcus epidermidis ATCC 12228
[13] = tested on: Vibrio cholerae non-O1
[14] = tested on: Salmonella enterica subsp. enterica serovar Typhi DMST 22842
[15] = tested on: Vibrio cholerae non-O139
[16] = tested on: Escherichia coli D21
[17] = tested on: Saccharomyces cerevisiae
[18] = tested on: Pseudomonas syringae pv. tabaci 1918NCPPB
[19] = tested on: Bacillus megaterium Bm11
[20] = tested on: Streptococcus pyogenes ATCC 21547
[21] = tested on: Yersinia pseudotuberculosis YPIII
[22] = tested on: Candida albicans ATCC 10231
[23] = tested on: Staphylococcus aureus Cowan 1
[24] = tested on: Acinetobacter baumannii ATCC 19606
[25] = tested on: Enterococcus faecalis ATCC 29212
[26] = tested on: Staphylococcus capitis 1
[27] = tested on: Schizosaccharomyces pombe
[28] = tested on: Pseudomonas aeruginosa ATCC 15692
[29] = tested on: Acinetobacter junii RT-4
[30] = tested on: Pseudomonas aeruginosa ATCC 9027
[31] = tested on: Staphylococcus aureus ATCC 6538
[32] = tested on: Bacillus subtilis ATCC 9372
[33] = tested on: Escherichia coli ATCC 8739
[34] = tested on: Proteus vulgaris NCTC 4635

Compound CC[C@H](C)[C@H](NC(=O)[C@H](C)NC(=O)[C@H](CCCCN)NC(=O)CNC(=O)[C@H](C)NC(=O)[C@H](CO)NC(=O)[C@H](Cc1ccccc1)NC(=O)[C@H](CC(C)C)NC(=O)CNC(=O)CNC(=O)[C@@H](NC(=O)[C@@H](NC(=O)[C@H](Cc1cnc[nH]1)NC(=O)[C@H](Cc1cnc[nH]1)NC(=O)[C@@H](NC(=O)[C@@H](N)Cc1ccccc1)[C@@H](C)CC)[C@@H](C)CC)[C@@H](C)CC)C(=O)N[C@@H](Cc1cnc[nH]1)C(=O)N[C@@H](CCCN=C(N)N)C(=O)N[C@@H](CC(C)C)C(=O)N[C@H](C(=O)N[C@@H](CCCN=C(N)N)C(=O)N[C@@H](CCCN=C(N)N)C(=O)N[C@@H](CCCN=C(N)N)C(=O)O)[C@@H](C)CC [FIHHIIGGLFSAGKAIHRLIRRR] has an MIC [1] of 48 µM (≈ 128 µg/mL), an MIC [2] of 12 µM (≈ 32 µg/mL) and an MIC [3] of 192 µM (≈ 512 µg/mL). For the same compound, the MIC [4] was 5.99 µM (≈ 16 µg/mL).
With CC[C@H](C)[C@@H]1NC(=O)[C@H](CO)NC(=O)[C@H](Cc2ccccc2)NC(=O)[C@H]([C@@H](C)O)NC(=O)[C@H](Cc2c[nH]c3ccccc23)NC(=O)[C@@H](NC(=O)CNC(=O)[C@H](CCCN=C(N)N)NC(=O)[C@H](CC(C)C)NC(=O)[C@H](C)N)CSSC[C@@H](C(=O)N2CCC[C@H]2C(N)=O)NC(=O)[C@@H]2CCCN2C(=O)[C@H](CCCCN)NC(=O)[C@@H]2CCCN2C(=O)[C@@H]2CCCN2C1=O [ALRGCWTFSIPPKPCP] the MIC [5] was at least 512 µM, the MIC [6] was at least 128 µM and the MIC [7] was at least 128 µM. The MIC [3] was 512 µM (≈ 906 µg/mL) and the MIC [8] was at least 64 µM.
CC[C@H](C)[C@H](NC(=O)[C@H](CC(C)C)NC(=O)[C@H](CO)NC(=O)[C@H](Cc1cnc[nH]1)NC(=O)[C@@H](NC(=O)[C@H](Cc1cnc[nH]1)NC(=O)[C@H](CCCCN)NC(=O)CNC(=O)[C@@H](NC(=O)[C@H](CO)NC(=O)[C@H](Cc1ccccc1)NC(=O)[C@H](CC(C)C)NC(=O)CNC(=O)CNC(=O)[C@@H](NC(=O)[C@@H](NC(=O)[C@H](Cc1cnc[nH]1)NC(=O)[C@H](Cc1cnc[nH]1)NC(=O)[C@@H](NC(=O)[C@@H](N)Cc1ccccc1)[C@@H](C)CC)[C@@H](C)CC)[C@@H](C)CC)C(C)C)[C@@H](C)CC)C(=O)N[C@@H](Cc1cnc[nH]1)C(=O)NCC(=O)N[C@@H](Cc1cnc[nH]1)C(=O)O [FIHHIIGGLFSVGKHIHSLIHGH] was tested, and the MIC [1] was 50.1 µM (≈ 128 µg/mL), the MIC [2] was at least 100 µM and the MIC [3] was over 200 µM. The MIC [4] was at least 100 µM.
Work on CC(C)[C@H](NC(=O)CNC(=O)[C@@H](N)CC(N)=O)C(=O)N[C@@H](CCC(N)=O)C(=O)N1CCC[C@H]1C(=O)N[C@@H](CCCCN)C(=O)N[C@@H](Cc1ccc(O)cc1)C(=O)N[C@@H](CCCCN)C(=O)N[C@@H](Cc1c[nH]c2ccccc12)C(=O)N[C@@H](Cc1c[nH]c2ccccc12)C(=O)N[C@@H](CCCCN)C(=O)N[C@@H](Cc1c[nH]c2ccccc12)C(=O)N[C@@H](Cc1c[nH]c2ccccc12)C(=O)N[C@@H](CCCCN)C(=O)N[C@@H](CCCCN)C(=O)N[C@@H](Cc1c[nH]c2ccccc12)C(=O)N[C@@H](Cc1c[nH]c2ccccc12)C(N)=O [NGVQPKYKWWKWWKKWW] yielded an MIC [9] of 4.52 µM (≈ 11 µg/mL), an MIC [10] of 18.9 µM (≈ 46 µg/mL) and an MIC [11] of 4.52 µM (≈ 11 µg/mL). It also gave an MIC [12] of 9.45 µM (≈ 23 µg/mL), an MIC [13] of 4.52 µM (≈ 11 µg/mL) and an MIC [3] of 37.4 µM (≈ 91 µg/mL). It also gave an MIC [14] of 9.45 µM (≈ 23 µg/mL) and an MIC [15] of 4.52 µM (≈ 11 µg/mL).
CC[C@H](C)[C@H](NC(=O)[C@H](CCCN=C(N)N)NC(=O)CNC(=O)[C@H](CC(C)C)NC(=O)[C@H](Cc1ccccc1)NC(=O)[C@H](CCCN=C(N)N)NC(=O)[C@H](CO)NC(=O)[C@H](Cc1ccccc1)NC(=O)[C@H](Cc1c[nH]c2ccccc12)NC(=O)[C@H](CCC(N)=O)NC(=O)[C@@H](NC(=O)[C@@H](N)Cc1ccccc1)C(C)C)C(=O)N[C@@H](CC(C)C)C(N)=O [FVQWFSRFLGRIL] was tested, and the MIC [10] was 6 µM (≈ 10 µg/mL), the MIC [16] was at least 48 µM and the MIC [17] was 12 µM (≈ 20 µg/mL). It also gave an MIC [18] of 12 µM (≈ 20 µg/mL), an MIC [19] of 6 µM (≈ 10 µg/mL) and an MIC [20] of 6 µM (≈ 10 µg/mL). It also gave an MIC [21] of 6 µM (≈ 10 µg/mL), an MIC [11] of 12 µM (≈ 20 µg/mL) and an MIC [22] of 12 µM (≈ 20 µg/mL). The MIC [12] was 6 µM (≈ 10 µg/mL), the MIC [3] was 48 µM (≈ 80.1 µg/mL) and the MIC [23] was 6 µM (≈ 10 µg/mL). It also gave an MIC [24] of 6 µM (≈ 10 µg/mL), an MIC [25] of 12 µM (≈ 20 µg/mL) and an MIC [26] of 6 µM (≈ 10 µg/mL). For the same compound, the MIC [27] was 6 µM (≈ 10 µg/mL), the MIC [28] was 24 µM (≈ 40 µg/mL) and the MIC [29] was 6 µM (≈ 10 µg/mL).
CC[C@H](C)[C@H](NC(=O)[C@@H](NC(=O)[C@H](CC(=O)O)NC(=O)[C@H](Cc1ccccc1)NC(=O)[C@H](CC(C)C)NC(=O)CN)C(C)C)C(=O)N[C@@H](CCCCN)C(=O)O [GLFDVIK] showed an MIC [30] of 1290 µM (≈ 1020 µg/mL), an MIC [31] of over 1290 µM and an MIC [32] of at least 1290 µM. The MIC [33] was at least 1290 µM and the MIC [34] was at least 1290 µM.
CC[C@H](C)[C@H](NC(=O)[C@H](CCCN=C(N)N)NC(=O)CNC(=O)[C@H](CC(C)C)NC(=O)[C@H](Cc1ccccc1)NC(=O)[C@H](CCCN=C(N)N)NC(=O)[C@H](CO)NC(=O)[C@H](Cc1ccccc1)NC(=O)[C@H](Cc1c[nH]c2ccccc12)NC(=O)[C@H](CCCN=C(N)N)NC(=O)[C@@H](NC(=O)[C@@H](N)Cc1ccccc1)C(C)C)C(=O)N[C@@H](CC(C)C)C(N)=O [FVRWFSRFLGRIL] was tested, and the MIC [10] was 6 µM (≈ 10.2 µg/mL), the MIC [16] was 24 µM (≈ 40.7 µg/mL) and the MIC [17] was 24 µM (≈ 40.7 µg/mL). It also gave an MIC [18] of 6 µM (≈ 10.2 µg/mL), an MIC [19] of 3 µM (≈ 5.09 µg/mL) and an MIC [20] of 3 µM (≈ 5.09 µg/mL). It also gave an MIC [21] of 6 µM (≈ 10.2 µg/mL), an MIC [11] of 48 µM (≈ 81.4 µg/mL) and an MIC [22] of 24 µM (≈ 40.7 µg/mL). For the same compound, the MIC [12] was 6 µM (≈ 10.2 µg/mL), the MIC [3] was 24 µM (≈ 40.7 µg/mL) and the MIC [23] was 6 µM (≈ 10.2 µg/mL). For the same compound, the MIC [24] was 6 µM (≈ 10.2 µg/mL), the MIC [25] was 24 µM (≈ 40.7 µg/mL) and the MIC [26] was 6 µM (≈ 10.2 µg/mL). The MIC [27] was 12 µM (≈ 20.4 µg/mL), the MIC [28] was 24 µM (≈ 40.7 µg/mL) and the MIC [29] was 12 µM (≈ 20.4 µg/mL).
CC[C@H](C)[C@H](NC(=O)[C@@H](NC(=O)[C@H](CO)NC(=O)[C@H](C)NC(=O)[C@H](CCCCN)NC(=O)[C@@H](NC(=O)[C@@H](NC(=O)[C@H](CC(=O)O)NC(=O)[C@H](Cc1ccccc1)NC(=O)[C@H](CC(C)C)NC(=O)CN)C(C)C)[C@@H](C)CC)C(C)C)C(=O)NCC(=O)NCC(=O)N[C@@H](CC(C)C)C(=O)O [GLFDVIKASVIGGL] was tested, and the MIC [30] was 737 µM (≈ 1020 µg/mL), the MIC [31] was 737 µM (≈ 1020 µg/mL) and the MIC [32] was at least 737 µM. The MIC [33] was at least 369 µM and the MIC [34] was at least 737 µM.
